In patent publication US6835536B2, “Antimicrobial cationic peptides and formulations thereof” (Micrologix Biotech Inc., priority 2001, dated 2004):

Columns and labels:
Assay in all cases: Agarose dilution MIC assay
Format in all cases: cell-based
E. coli = E. coli strain ECO005
Text: (§1) The agarose dilution assay measures antimicrobial activity of peptides and peptide analogues. The activity is expressed as the minimum inhibitory concentration (MIC) in μg/ml of the peptide.
(§2) In order to mimic in vivo conditions, calcium and magnesium supplemented Mueller Hinton broth is used in combination with a low EEO agarose as the bacterial growth medium. Agarose, rather than agar, is used as the charged groups in agar prevent peptide diffusion through the medium. The medium is autoclaved, then cooled to 50-55° C. in a water bath before aseptic addition of a peptide solution. The same volume of different concentrations of peptide solution is added to the cooled, molten agarose that is then poured into a petri plate to a depth of 3-4 mm and allowed to solidify.
(§3) The bacterial inoculum is adjusted to a 0.5 McFarland turbidity standard (PML Microbiological) and then diluted 1:10 before application on to the agarose plate. The final inoculum applied to the agarose is approximately 10^4 CFU in a 5-8 mm diameter spot. The agarose plates are incubated at 35-37° C. for 16 to 20 hours.

S. epidermidis = settings: for Minimum Inhibitory Concentration: S. epidermidis strain SEP010, agarose dilution
Text: as §1, §2, §3

C. neoformans = C. neoformans strain CNE001
Text: as §1, §2, §3

S. pyogenes = S. pyogenes strain SPY001
Text: as §1, §2, §3

E. faecalis = E. faecalis strain EFS001
Text: as §1, §2, §3

C. albicans = settings: for Minimum Inhibitory Concentration: C. albicans strain CAL002, agarose dilution
Text: as §1, §2, §3

S. marcescens = S. marcescens strain SMS003
Text: as §1, §2, §3

A. calcoaceticus = A. calcoaceticus strain ACA002
Text: as §1, §2, §3

P. aeruginosa = settings: for Minimum Inhibitory Concentration: P. aeruginosa strain PAE004, agarose dilution
Text: as §1, §2, §3

S. mitis = S. mitis strain SMT014
Text: as §1, §2, §3

S. aureus = settings: for Minimum Inhibitory Concentration: S. aureus strain SAU014, agarose dilution
Text: as §1, §2, §3

C. jeikeium = C. jeikeium strain CJK005
Text: as §1, §2, §3

S. pneumoniae = S. pneumoniae strain SPN002
Text: as §1, §2, §3

E. cloacae = E. cloacae strain ECL007
Text: as §1, §2, §3

K. pneumoniae = tested on: K. pneumoniae
Text: as §1, §2, §3

S. maltophilia = S. maltophilia strain SMA002
Text: as §1, §2, §3

| Substance | Minimum Inhibitory Concentration (E. coli) | Minimum Inhibitory Concentration (S. epidermidis) | Minimum Inhibitory Concentration (C. neoformans) | Minimum Inhibitory Concentration (S. pyogenes) | Minimum Inhibitory Concentration (E. faecalis) | Minimum Inhibitory Concentration (C. albicans) | Minimum Inhibitory Concentration (S. marcescens) | Minimum Inhibitory Concentration (A. calcoaceticus) | Minimum Inhibitory Concentration (P. aeruginosa) | Minimum Inhibitory Concentration (S. mitis) | Minimum Inhibitory Concentration (S. aureus) | Minimum Inhibitory Concentration (C. jeikeium) | Minimum Inhibitory Concentration (S. pneumoniae) | Minimum Inhibitory Concentration (E. cloacae) | Minimum Inhibitory Concentration (K. pneumoniae; K. pnenmoniae strain KPN001) | Minimum Inhibitory Concentration (S. maltophilia) | Minimum Inhibitory Concentration (K. pneumoniae; K. pneumoniae strain KPN001) | other results |
| --- | --- | --- | --- | --- | --- | --- | --- | --- | --- | --- | --- | --- | --- | --- | --- | --- | --- | --- |
| I L K W V W W V W R R K [Peptide 11B36CN] | 8 µg/mL | 2 µg/mL | 16 µg/mL | 2 µg/mL | 16 µg/mL | 8 µg/mL | >128 µg/mL | 2 µg/mL | 32 µg/mL | 2 µg/mL | 2 µg/mL | 1 µg/mL | 4 µg/mL | 64 µg/mL | 8 µg/mL | 8 µg/mL |  |  |
| I L R R W V W W V W R R K [Peptide 11F5CN] | 16 µg/mL | 2 µg/mL | 8 µg/mL | 2 µg/mL | 16 µg/mL | 32 µg/mL | >128 µg/mL | 4 µg/mL | 64 µg/mL | 2 µg/mL | 8 µg/mL | 0.5 µg/mL | 4 µg/mL | 128 µg/mL | 64 µg/mL | 16 µg/mL |  |  |
| I L R W P W W P W R R K [Peptide 11B7CN] |  |  |  |  |  |  |  |  |  |  |  |  |  |  |  |  |  | MIC (S. epidermidis; S. epidermidis (SE010), Table 6): Organism Tested: S. epidermidis (SE010) MIC = 4 ug/ml; MIC (C. albicans; C. albicans (CA002), Table 6): Organism Tested: C. albicans (CA002) MIC = 64 ug/ml; MIC (P. aeruginosa; P. aeruginosa (PA004), Table 6): Organism Tested: P. aeruginosa (PA004) MIC = 128 ug/ml; MIC (S. aureus; S. aureus (SA016), Table 6): Organism Tested: S. aureus (SA016) MIC = 2 ug/ml |
| R L F V W W V F R R [Peptide 11F64CN] | 2 µg/mL | 1 µg/mL | 8 µg/mL | 1 µg/mL | 2 µg/mL | 16 µg/mL | >128 µg/mL | 2 µg/mL | 16 µg/mL | 1 µg/mL | 1 µg/mL | 0.5 µg/mL | 2 µg/mL | 16 µg/mL | 2 µg/mL | 1 µg/mL |  |  |
| R L G G G W V W W V W R R [Peptide 11F50CN] | 4 µg/mL | 1 µg/mL | 16 µg/mL | 1 µg/mL | 16 µg/mL | 32 µg/mL | >128 µg/mL | 2 µg/mL | >128 µg/mL | 1 µg/mL | 2 µg/mL | 0.5 µg/mL | 2 µg/mL | >128 µg/mL | 16 µg/mL | 8 µg/mL |  |  |
| R L V V W W V V R R [Peptide 11F63CN] | 2 µg/mL | 1 µg/mL | 8 µg/mL | 1 µg/mL | 4 µg/mL | 16 µg/mL | >128 µg/mL | 2 µg/mL | 8 µg/mL | 2 µg/mL | 2 µg/mL | 1 µg/mL | 4 µg/mL | 16 µg/mL | 4 µg/mL | 0.5 µg/mL |  |  |
| R L W V W W V W R r [Peptide 11F68CN] | 2 µg/mL | 1 µg/mL | 8 µg/mL | 1 µg/mL | 2 µg/mL | 32 µg/mL | >128 µg/mL | 1 µg/mL | 32 µg/mL | 1 µg/mL | 2 µg/mL | 0.5 µg/mL | 2 µg/mL | 32 µg/mL | 2 µg/mL | 2 µg/mL |  |  |
| W (Dab) W W (Dab) P (Dab) W (Dab) W P (Dab) W [Peptide 11J68CN] |  |  | 1 µg/mL | 5e-07 µg/mL |  |  |  | 5e-07 µg/mL | 4e-06 µg/mL |  |  | <0.25 µg/mL | 1 µg/mL | 1.6e-05 µg/mL |  | 4 µg/mL | 4 µg/mL |  |
| W (Orn) W W (Orn) P (Orn) W (Orn) W P (Orn) W [Peptide 11J67CN] |  |  | 2 µg/mL |  | 6.4e-05 µg/mL |  |  | 1e-06 µg/mL |  |  | 2e-06 µg/mL | <0.25 µg/mL | 2 µg/mL |  |  | 1 µg/mL | 8 µg/mL |  |
| W (Orn) W W (Orn) V A W (Orn) W V (Orn) W [Peptide 11J58CN] |  |  | 2 µg/mL |  | 3.2e-05 µg/mL |  |  | 1e-06 µg/mL | 1.6e-05 µg/mL | 1e-06 µg/mL |  | 0.5 µg/mL | 2 µg/mL | 1.6e-05 µg/mL |  | 2 µg/mL | 2 µg/mL |  |
| W P W W P W R R K [Peptide 11G27CN] | 6.4e-05 µg/mL | 8e-06 µg/mL | 16 µg/mL |  |  |  |  | 1.6e-05 µg/mL | >0.000128 µg/mL |  |  | 0.5 µg/mL | 32 µg/mL |  |  | 64 µg/mL | >128 µg/mL |  |
| W R W W K P K W R W P K W [Peptide 11J02ACN] | 1.6e-05 µg/mL |  | 16 µg/mL |  | 6.4e-05 µg/mL |  |  |  |  |  | 8e-06 µg/mL | 0.5 µg/mL | 16 µg/mL | >3.2e-05 µg/mL |  | 8 µg/mL | 32 µg/mL |  |
| W R W W K V W R W V K W [Peptide 11J36CN] |  |  | 4 µg/mL |  |  |  |  |  |  | 1e-06 µg/mL |  | 0.5 µg/mL | 2 µg/mL |  |  | 2 µg/mL | 4 µg/mL |  |
| W V R L W W R R V W [Peptide 11F93CN] |  |  | 8 µg/mL |  |  |  |  |  |  |  | 2e-06 µg/mL | 0.5 µg/mL | 4 µg/mL |  |  | 8 µg/mL | 64 µg/mL |  |
